Results taken from patent US9963442B2, “Pyridones as herbicides” (E I DU PONT DE NEMOURS AND COMPANY, priority 2014, dated 2018).

Tests used:
Experiment in all cases: Test C postemergence
Type in all cases: in vivo
Conditions in all cases: scale 0 to 100, 0 is no effect, 100 is complete control
[1] = system: johnsongrass (Sorghum halepense)
Method in brief: (§1)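 Pre- and postemergence greenhouse applications of test chemicals in non-phytotoxic solvent with surfactant; preemergence on seeds in loam/sand, postemergence on plants 2–18 cm (1- to 4-leaf stage) in peat-based medium. Visual rating versus untreated controls after 13–15 days, scale 0 (no effect) to 100 (complete control).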

corn (Zea mays) = system: corn (Zea mays)
Method in brief: as §1

[2] = system: morningglory (Ipomoea coccinea)
Method in brief: as §1

[3] = system: waterhemp (common waterhemp, Amaranthus rudis)
Method in brief: as §1

[4] = system: ragweed (common ragweed, Ambrosia elatior)
Method in brief: as §1

[5] = system: chickweed (common chickweed, Stellaria media)
Method in brief: as §1

soybean (Glycine max) = system: soybean (Glycine max)
Method in brief: as §1

kochia (Kochia scoparia) = system: kochia (Kochia scoparia)
Method in brief: as §1

[6] = system: Italian ryegrass (Lolium multiflorum)
Method in brief: as §1

[7] = system: galium (catchweed bedstraw, Galium aparine)
Method in brief: as §1

wild oat (Avena fatua) = system: wild oat (Avena fatua)
Method in brief: as §1

[8] = system: blackgrass (Alopecurus myosuroides)
Method in brief: as §1

[9] = system: large (Lg) crabgrass (Digitaria sanguinalis)
Method in brief: as §1

[10] = system: winter wheat (Triticum aestivum)
Method in brief: as §1

[11] = system: oilseed rape (Brassica napus)
Method in brief: as §1

[12] = system: barnyardgrass (Echinochloa crus-galli)
Method in brief: as §1

[13] = system: pigweed (Amaranthus retroflexus)
Method in brief: as §1

[14] = system: lambsquarters (Chenopodium album)
Method in brief: as §1

[15] = system: velvetleaf (Abutilon theophrasti)
Method in brief: as §1

Compound: O=c1cccc(Oc2ncc(Cl)cn2)n1-c1ncc(Cl)cn1 [Compound 6]
- Plant response rating, Johnsongrass ([1]; 16 g ai/ha): 0
- Plant response rating, Johnsongrass ([1]; 31 g ai/ha): 5
- Plant response rating, Johnsongrass ([1]; 62 g ai/ha): 5
- Plant response rating, Johnsongrass ([1]; 125 g ai/ha): 5
- Plant response rating, Corn (corn (Zea mays); 16 g ai/ha): 5
- Plant response rating, Corn (corn (Zea mays); 31 g ai/ha): 10
- Plant response rating, Corn (corn (Zea mays); 62 g ai/ha): 10
- Plant response rating, Corn (corn (Zea mays); 125 g ai/ha): 20
- Plant response rating, Morningglory ([2]; 16 g ai/ha): 50
- Plant response rating, Morningglory ([2]; 31 g ai/ha): 75
- Plant response rating, Morningglory ([2]; 62 g ai/ha): 65
- Plant response rating, Morningglory ([2]; 125 g ai/ha): 80
- Plant response rating, Waterhemp ([3]; 16 g ai/ha): 60
- Plant response rating, Waterhemp ([3]; 31 g ai/ha): 75
- Plant response rating, Waterhemp ([3]; 62 g ai/ha): 70
- Plant response rating, Waterhemp ([3]; 125 g ai/ha): 70
- Plant response rating, Ragweed ([4]; 16 g ai/ha): 25
- Plant response rating, Ragweed ([4]; 31 g ai/ha): 45
- Plant response rating, Ragweed ([4]; 62 g ai/ha): 40
- Plant response rating, Ragweed ([4]; 125 g ai/ha): 70
- Plant response rating, Chickweed ([5]; 16 g ai/ha): 50
- Plant response rating, Chickweed ([5]; 31 g ai/ha): 55
- Plant response rating, Chickweed ([5]; 62 g ai/ha): 60
- Plant response rating, Chickweed ([5]; 125 g ai/ha): 55
- Plant response rating, Soybean (soybean (Glycine max); 16 g ai/ha): 40
- Plant response rating, Soybean (soybean (Glycine max); 31 g ai/ha): 45
- Plant response rating, Soybean (soybean (Glycine max); 62 g ai/ha): 60
- Plant response rating, Soybean (soybean (Glycine max); 125 g ai/ha): 70
- Plant response rating, Kochia (kochia (Kochia scoparia); 16 g ai/ha): 50
- Plant response rating, Kochia (kochia (Kochia scoparia); 31 g ai/ha): 60
- Plant response rating, Kochia (kochia (Kochia scoparia); 62 g ai/ha): 80
- Plant response rating, Kochia (kochia (Kochia scoparia); 125 g ai/ha): 85
- Plant response rating, Ryegrass, Italian ([6]; 16 g ai/ha): 0
- Plant response rating, Ryegrass, Italian ([6]; 31 g ai/ha): 0
- Plant response rating, Ryegrass, Italian ([6]; 62 g ai/ha): 0
- Plant response rating, Ryegrass, Italian ([6]; 125 g ai/ha): 0
- Plant response rating, Galium ([7]; 16 g ai/ha): 50
- Plant response rating, Galium ([7]; 31 g ai/ha): 60
- Plant response rating, Galium ([7]; 62 g ai/ha): 60
- Plant response rating, Galium ([7]; 125 g ai/ha): 80
- Plant response rating, Oat, Wild (wild oat (Avena fatua); 16 g ai/ha): 0
- Plant response rating, Oat, Wild (wild oat (Avena fatua); 31 g ai/ha): 0
- Plant response rating, Oat, Wild (wild oat (Avena fatua); 62 g ai/ha): 0
- Plant response rating, Oat, Wild (wild oat (Avena fatua); 125 g ai/ha): 0
- Plant response rating, Blackgrass ([8]; 16 g ai/ha): 0
- Plant response rating, Blackgrass ([8]; 31 g ai/ha): 0
- Plant response rating, Blackgrass ([8]; 62 g ai/ha): 5
- Plant response rating, Blackgrass ([8]; 125 g ai/ha): 5
- Plant response rating, Crabgrass, Large ([9]; 16 g ai/ha): 5
- Plant response rating, Crabgrass, Large ([9]; 31 g ai/ha): 15
- Plant response rating, Crabgrass, Large ([9]; 62 g ai/ha): 5
- Plant response rating, Crabgrass, Large ([9]; 125 g ai/ha): 20
- Plant response rating, Wheat ([10]; 16 g ai/ha): 0
- Plant response rating, Wheat ([10]; 31 g ai/ha): 0
- Plant response rating, Wheat ([10]; 62 g ai/ha): 0
- Plant response rating, Wheat ([10]; 125 g ai/ha): 0
- Plant response rating, Oilseed Rape ([11]; 16 g ai/ha): 5
- Plant response rating, Oilseed Rape ([11]; 31 g ai/ha): 15
- Plant response rating, Oilseed Rape ([11]; 62 g ai/ha): 20
- Plant response rating, Oilseed Rape ([11]; 125 g ai/ha): 10
- Plant response rating, Barnyardgrass ([12]; 16 g ai/ha): 5
- Plant response rating, Barnyardgrass ([12]; 31 g ai/ha): 5
- Plant response rating, Barnyardgrass ([12]; 62 g ai/ha): 5
- Plant response rating, Barnyardgrass ([12]; 125 g ai/ha): 10
- Plant response rating, Pigweed ([13]; 16 g ai/ha): 70
- Plant response rating, Pigweed ([13]; 31 g ai/ha): 70
- Plant response rating, Pigweed ([13]; 62 g ai/ha): 75
- Plant response rating, Pigweed ([13]; 125 g ai/ha): 85
- Plant response rating, Lambsquarters ([14]; 16 g ai/ha): 20
- Plant response rating, Lambsquarters ([14]; 31 g ai/ha): 35
- Plant response rating, Lambsquarters ([14]; 62 g ai/ha): 65
- Plant response rating, Lambsquarters ([14]; 125 g ai/ha): 70
- Plant response rating, Velvetleaf ([15]; 16 g ai/ha): 50
- Plant response rating, Velvetleaf ([15]; 31 g ai/ha): 65
- Plant response rating, Velvetleaf ([15]; 62 g ai/ha): 75
- Plant response rating, Velvetleaf ([15]; 125 g ai/ha): 75
